Values quoted from earlier work in paper PMC12300650, “Development and Characterization of a New Oral Antileishmanial Bis(pyridine-2-Carboxamidine) Drug Through Innovative Dissolution Testing in Biorelevant Media Combined with Pharmacokinetic Studies” (Pharmaceutics, 2025).
Like-named read-outs stand apart in the source and are kept apart here.

[1] = FaSSIF pH 6.5, ref Higashino et al., 2023 [23]
[2] = Two state FaSSGF to FaSSIF, ref Arnold et al., 2011 [22]
[3] = FaSSIF pH 6.8, ref Naing et al., 2024 [24]

Row | Precipitation time [1] [min] | Supersaturation Time [1] [min] | Precipitation time [2] [min] | Supersaturation Time [2] [min] | Precipitation time [3] [min] | Supersaturation Time [3] [min] | SMILES
1 | 60 to 120 | 30 | 20 to 180 | 20 | – | – | OCCN(CCO)c1nc(N2CCCCC2)c2nc(N(CCO)CCO)nc(N3CCCCC3)c2n1 [Dipyridamole]
2 | 30 to 60 | 30 | – | – | – | – | CC(=O)N1CCN(c2ccc(OCC3COC(Cn4ccnc4)(c4ccc(Cl)cc4Cl)O3)cc2)CC1 (centres unmarked) [Ketoconazole]
3 | – | – | – | – | 30 to 60 | 30 | CC(C)c1nc(CN(C)C(=O)N[C@H](C(=O)N[C@@H](Cc2ccccc2)C[C@H](O)[C@H](Cc2ccccc2)NC(=O)OCc2cncs2)C(C)C)cs1 [Ritonavir]
